Measured values as given in PubChem BioAssay (NCI).
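Method: 48-hour compound exposure of cells in 96-well plates, five concentrations, linear interpolation of endpoints. TGI: total growth inhibition.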

Experiments:
Experiment in all cases: NCI anticancer screen, dose series, 48 h
IGROV1 ovarian = tested on: IGROV1 ovarian
SR leukemia = tested on: SR leukemia
PC-3 prostate = tested on: PC-3 prostate
K-562 leukemia = tested on: K-562 leukemia
RPMI-8226 leukemia = tested on: RPMI-8226 leukemia
T-47D breast = tested on: T-47D breast
EKVX NSCLC = tested on: EKVX NSCLC
MDA-MB-435 = tested on: MDA-MB-435
DU-145 prostate = tested on: DU-145 prostate
HS 578T breast = tested on: HS 578T breast
SK-OV-3 ovarian = tested on: SK-OV-3 ovarian
HOP-62 NSCLC = tested on: HOP-62 NSCLC
OVCAR-4 ovarian = tested on: OVCAR-4 ovarian
OVCAR-5 ovarian = tested on: OVCAR-5 ovarian
A549 NSCLC = tested on: A549 NSCLC
CCRF-CEM leukemia = tested on: CCRF-CEM leukemia
LOX IMVI melanoma = tested on: LOX IMVI melanoma
M14 melanoma = tested on: M14 melanoma
RXF 393 renal = tested on: RXF 393 renal
MDA-MB-231 breast = tested on: MDA-MB-231 breast
SF-268 CNS = tested on: SF-268 CNS
UACC-257 melanoma = tested on: UACC-257 melanoma
ACHN renal = tested on: ACHN renal
SK-MEL-5 melanoma = tested on: SK-MEL-5 melanoma
NCI-H460 lung = tested on: NCI-H460 lung
SNB-19 CNS = tested on: SNB-19 CNS
MALME-3M melanoma = tested on: MALME-3M melanoma
OVCAR-3 ovarian = tested on: OVCAR-3 ovarian
SF-539 CNS = tested on: SF-539 CNS
NCI-H226 lung = tested on: NCI-H226 lung
HCT-116 colon = tested on: HCT-116 colon
BT-549 breast = tested on: BT-549 breast
U251 CNS = tested on: U251 CNS
UACC-62 melanoma = tested on: UACC-62 melanoma
SNB-75 CNS = tested on: SNB-75 CNS
MOLT-4 leukemia = tested on: MOLT-4 leukemia
MDA-N = tested on: MDA-N
CAKI-1 renal = tested on: CAKI-1 renal
KM12 colon = tested on: KM12 colon
SK-MEL-2 melanoma = tested on: SK-MEL-2 melanoma
HOP-92 NSCLC = tested on: HOP-92 NSCLC
SF-295 CNS = tested on: SF-295 CNS
TK-10 renal = tested on: TK-10 renal
SW-620 colon = tested on: SW-620 colon
SK-MEL-28 melanoma = tested on: SK-MEL-28 melanoma
HCC-2998 colon = tested on: HCC-2998 colon
HT29 colon = tested on: HT29 colon
NCI-H23 lung = tested on: NCI-H23 lung
NCI/ADR-RES ovarian = tested on: NCI/ADR-RES ovarian
NCI-H522 lung = tested on: NCI-H522 lung
A498 renal = tested on: A498 renal
MCF7 breast = tested on: MCF7 breast
COLO 205 colon = tested on: COLO 205 colon
OVCAR-8 ovarian = tested on: OVCAR-8 ovarian
786-0 renal = tested on: 786-0 renal
HCT-15 colon = tested on: HCT-15 colon
UO-31 renal = tested on: UO-31 renal
SN12C renal = tested on: SN12C renal

Clc1cc(N/N=C(\c2ccccc2)c2ccccn2)ncn1
TGI (IGROV1 ovarian): 89.9 µM
TGI (SR leukemia): 3.08 µM
TGI (PC-3 prostate): > 100 µM
TGI (K-562 leukemia): > 100 µM
TGI (RPMI-8226 leukemia): 1.92 µM
TGI (T-47D breast): 45.2 µM
TGI (EKVX NSCLC): > 100 µM
TGI (MDA-MB-435): > 100 µM
TGI (DU-145 prostate): > 100 µM
TGI (HS 578T breast): > 100 µM
TGI (SK-OV-3 ovarian): 2 µM
TGI (HOP-62 NSCLC): 0.665 µM
TGI (OVCAR-4 ovarian): > 100 µM
TGI (OVCAR-5 ovarian): > 100 µM
TGI (A549 NSCLC): > 100 µM
TGI (CCRF-CEM leukemia): 1.3 µM
TGI (LOX IMVI melanoma): 1.74 µM
TGI (M14 melanoma): > 100 µM
TGI (RXF 393 renal): > 100 µM
TGI (MDA-MB-231 breast): 0.0669 µM
TGI (SF-268 CNS): > 100 µM
TGI (UACC-257 melanoma): 4.65 µM
TGI (ACHN renal): > 100 µM
TGI (SK-MEL-5 melanoma): 4.2 µM
TGI (NCI-H460 lung): 83.1 µM
TGI (SNB-19 CNS): > 100 µM
TGI (MALME-3M melanoma): 3.35 µM
TGI (OVCAR-3 ovarian): > 100 µM
TGI (SF-539 CNS): 3.26 µM
TGI (NCI-H226 lung): 67.3 µM
TGI (HCT-116 colon): > 100 µM
TGI (BT-549 breast): > 100 µM
TGI (U251 CNS): > 100 µM
TGI (UACC-62 melanoma): 2.7 µM
TGI (SNB-75 CNS): > 100 µM
TGI (MOLT-4 leukemia): 3.48 µM
TGI (MDA-N): > 100 µM
TGI (CAKI-1 renal): 0.235 µM
TGI (KM12 colon): > 100 µM
TGI (SK-MEL-2 melanoma): > 100 µM
TGI (HOP-92 NSCLC): > 100 µM
TGI (SF-295 CNS): > 100 µM
TGI (TK-10 renal): > 100 µM
TGI (SW-620 colon): > 100 µM
TGI (SK-MEL-28 melanoma): > 100 µM
TGI (HCC-2998 colon): > 100 µM
TGI (HT29 colon): > 100 µM
TGI (NCI-H23 lung): > 100 µM

CN(CCN)[C@H](CSSC[C@@H](c1ccccc1O)N(C)CCN)c1ccccc1O
TGI (SR leukemia): 11.5 µM
TGI (NCI/ADR-RES ovarian): 23.5 µM
TGI (PC-3 prostate): 30.2 µM
TGI (NCI-H522 lung): 33 µM
TGI (K-562 leukemia): 24.3 µM
TGI (RPMI-8226 leukemia): 43.2 µM
TGI (A498 renal): 39.2 µM
TGI (T-47D breast): 48.3 µM
TGI (EKVX NSCLC): 23.9 µM
TGI (MDA-MB-435): 42.8 µM
TGI (DU-145 prostate): 33.1 µM
TGI (HS 578T breast): 49.9 µM
TGI (SK-OV-3 ovarian): 25 µM
TGI (MCF7 breast): > 52.7 µM
TGI (COLO 205 colon): > 53.6 µM
TGI (HOP-62 NSCLC): 28.6 µM
TGI (OVCAR-4 ovarian): 34 µM
TGI (OVCAR-5 ovarian): 28.6 µM
TGI (A549 NSCLC): 23.9 µM
TGI (CCRF-CEM leukemia): 10.5 µM
TGI (LOX IMVI melanoma): 28.5 µM
TGI (M14 melanoma): 33.5 µM
TGI (RXF 393 renal): 43.7 µM
TGI (MDA-MB-231 breast): 26.5 µM
TGI (SF-268 CNS): 33.7 µM
TGI (UACC-257 melanoma): 32.8 µM
TGI (ACHN renal): 22.6 µM
TGI (SK-MEL-5 melanoma): 24.4 µM
TGI (NCI-H460 lung): 24.4 µM
TGI (OVCAR-8 ovarian): 47.6 µM
TGI (SNB-19 CNS): 26.2 µM
TGI (MALME-3M melanoma): 33.3 µM
TGI (OVCAR-3 ovarian): 28.6 µM
TGI (SF-539 CNS): 31.9 µM
TGI (NCI-H226 lung): 35.4 µM
TGI (786-0 renal): 32.6 µM
TGI (HCT-116 colon): 20.4 µM
TGI (BT-549 breast): 25 µM
TGI (U251 CNS): > 47.8 µM
TGI (UACC-62 melanoma): 24.5 µM
TGI (SNB-75 CNS): 29 µM
TGI (MOLT-4 leukemia): 23 µM
TGI (HCT-15 colon): 18.6 µM
TGI (MDA-N): 24.6 µM
TGI (CAKI-1 renal): 25.8 µM
TGI (KM12 colon): 28.2 µM
TGI (SK-MEL-2 melanoma): 38.9 µM
TGI (HOP-92 NSCLC): 35.6 µM
TGI (UO-31 renal): 23.9 µM
TGI (SF-295 CNS): 20.4 µM
TGI (TK-10 renal): 30.7 µM
TGI (SW-620 colon): > 57.3 µM
TGI (SN12C renal): 23.2 µM
TGI (SK-MEL-28 melanoma): 33.5 µM
TGI (HCC-2998 colon): 25.6 µM
TGI (HT29 colon): 21.3 µM
TGI (NCI-H23 lung): 28.5 µM
